Active and inactive are the calls of the source. No cut-off for these calls is given here.
Legend:
KBv200 [1] = experiment: Reversal of vinorelbine resistance in human KBv200 cells assessed as reduction in cell viability incubated for 72 hrs in presence of vinorelbine (reference value: 224 to 228.30 nM); assay type: functional, cell-based; conditions: KBv200, 72 h, read-out: IC50
KBv200 [2] = experiment: Reversal fold, ratio of vinorelbine IC50 for cytotoxicity against human KBv200 cells over test compound IC50 for reversal of vinorelbine resistance in human KBv200 cells; assay type: functional
KBv200 [3] = experiment: Reversal of paclitaxel resistance in human KBv200 cells assessed as reduction in cell viability incubated for 72 hrs in presence of paclitaxel (reference value: 392.9+/-196.5 nM); assay type: functional, cell-based; conditions: KBv200, 72 h
KBv200 [4] = experiment: Reversal of adriamycin resistance in human KBv200 cells assessed as reduction in cell viability incubated for 72 hrs in presence of adriamycin (reference value: 1291.2+/-308.9 nM); assay type: functional, cell-based; conditions: KBv200, 72 h
KB = experiment: Reversal of vinorelbine resistance in human KB cells assessed as reduction in cell viability incubated for 72 hrs in presence of vinorelbine (reference value: 7.4+/-2.2 nM); assay type: functional, cell-based
K562/Adr = experiment: Reversal of vinorelbine resistance in human K562/Adr cells assessed as reduction in cell viability incubated for 72 hrs in presence of vinorelbine (reference value: 7320.6+/-2115.2 nM); assay type: functional, cell-based
K562 = experiment: Reversal of vinorelbine resistance in human K562 cells assessed as reduction in cell viability incubated for 72 hrs in presence of vinorelbine (reference value: 5.9+/-0.2 nM); assay type: functional, cell-based; conditions: K562, 72 h
NCI/ADR-RES = experiment: Reversal of vinorelbine resistance in human NCI/ADR-RES cells assessed as reduction in cell viability incubated for 72 hrs in presence of vinorelbine (reference value: 6125.7+/-3267.7 nM); assay type: functional, cell-based
OVCAR-8 = experiment: Reversal of vinorelbine resistance in human OVCAR-8 cells assessed as reduction in cell viability incubated for 72 hrs in presence of vinorelbine (reference value: 16.2+/-4.7 nM); assay type: functional, cell-based; conditions: OVCAR-8, 72 h
[5] = Cytotoxicity against human HEK293T cells assessed as reduction in cell viability incubated for 48 hrs by CCK-8 assay; assay type: toxicity, cell-based, HEK-293T
[6] = Cytotoxicity against human L02 cells assessed as reduction in cell viability incubated for 48 hrs by CCK-8 assay; assay type: toxicity, cell-based
[7] = Half life in CD-1 mouse at 30 mg/kg, po; assay type: ADME, organism-based; conditions: in vivo
[8] = Tmax in CD-1 mouse at 30 mg/kg, po; assay type: ADME, organism-based; conditions: in vivo
[9] = Cmax in CD-1 mouse at 30 mg/kg, po; assay type: ADME, organism-based; design: dose 30 mg/kg, route po; conditions: in vivo
[10] = AUClast in CD-1 mouse at 30 mg/kg, po; assay type: ADME, organism-based; design: dose 30 mg/kg, route po; conditions: in vivo
[11] = AUCinf in CD-1 mouse at 30 mg/kg, po; assay type: ADME, organism-based; design: dose 30 mg/kg, route po; conditions: in vivo
[12] = Clearance in CD-1 mouse at 3 mg/kg, iv; assay type: ADME, organism-based; conditions: in vivo
[13] = Oral bioavailability in CD-1 mouse at 30 mg/kg; assay type: ADME, organism-based; conditions: in vivo
[14] = Half life in CD-1 mouse at 25 mg/kg, ip; assay type: ADME, organism-based; conditions: in vivo
[15] = Half life in CD-1 mouse at 3 mg/kg, iv; assay type: ADME, organism-based; conditions: in vivo
[16] = Tmax in CD-1 mouse at 25 mg/kg, ip; assay type: ADME, organism-based; conditions: in vivo
[17] = Cmax in CD-1 mouse at 25 mg/kg, ip; assay type: ADME, organism-based; design: dose 25 mg/kg, route ip; conditions: in vivo
[18] = AUClast in CD-1 mouse at 25 mg/kg, ip; assay type: ADME, organism-based; design: dose 25 mg/kg, route ip; conditions: in vivo
[19] = AUClast in CD-1 mouse at 3 mg/kg, iv; assay type: ADME, organism-based; design: dose 3 mg/kg, route iv; conditions: in vivo
[20] = AUCinf in CD-1 mouse at 25 mg/kg, ip; assay type: ADME, organism-based; design: dose 25 mg/kg, route ip; conditions: in vivo
[21] = AUCinf in CD-1 mouse at 3 mg/kg, iv; assay type: ADME, organism-based; design: dose 3 mg/kg, route iv; conditions: in vivo
[22] = Bioavailability in CD-1 mouse at 25 mg/kg, ip; assay type: ADME, organism-based; conditions: in vivo
KBv200 [23] = experiment: Antitumor activity against human KBv200 cells xenografted in Balb/cA nude mouse assessed as mean tumor volume at 50 mg/kg, ip administered as single dose and measured on day 0; assay type: functional
KBv200 [24] = experiment: Antitumor activity against human KBv200 cells xenografted in Balb/cA nude mouse assessed as mean tumor volume at 50 mg/kg, ip qd administered for 13 days; assay type: functional; conditions: time 13 day
KBv200 [25] = experiment: Antitumor activity against human KBv200 cells xenografted in Balb/cA nude mouse assessed as T/C ratio at 50 mg/kg, ip qd administered for 13 days; assay type: functional; conditions: time 13 day
KBv200 [26] = experiment: Antitumor activity against human KBv200 cells xenografted in Balb/cA nude mouse assessed as tumor growth inhibition at 50 mg/kg, ip qd administered for 13 days; assay type: functional; conditions: KBv200, 312 h, time 13 day
[27] = Toxicity in Balb/cA nude mouse xenografted with human KBv200 cells assessed as changes in body weight at 50 mg/kg, ip qd administered for 13 days; assay type: organism-based; conditions: in vivo, 312 h, time 13 day
[28] = Toxicity in Balb/cA nude mouse xenografted with human KBv200 cells assessed as mortality at 50 mg/kg, ip qd administered for 13 days; assay type: organism-based; conditions: in vivo, 312 h, time 13 day
KBv200 [29] = experiment: Antitumor activity against human KBv200 cells xenografted in Balb/cA nude mouse assessed as mean tumor volume at 25 mg/kg, ip administered as single dose and measured on day 0 in presence of vinorelbine; assay type: functional
KBv200 [30] = experiment: Antitumor activity against human KBv200 cells xenografted in Balb/cA nude mouse assessed as mean tumor volume at 25 mg/kg, ip qd administered for 13 days in presence of vinorelbine; assay type: functional; conditions: time 13 day
KBv200 [31] = experiment: Antitumor activity against human KBv200 cells xenografted in Balb/cA nude mouse assessed as T/C ratio at 25 mg/kg, ip qd administered for 13 days in presence of vinorelbine; assay type: functional; conditions: time 13 day
KBv200 [32] = experiment: Antitumor activity against human KBv200 cells xenografted in Balb/cA nude mouse assessed as tumor growth inhibition at 25 mg/kg, ip qd administered for 13 days in presence of vinorelbine; assay type: functional; conditions: KBv200, 312 h, time 13 day
[33] = Toxicity in Balb/cA nude mouse xenografted with human KBv200 cells assessed as changes in body weight at 25 mg/kg, ip qd administered for 13 days in presence of vinorelbine; assay type: organism-based; conditions: in vivo, 312 h, time 13 day
[34] = Toxicity in Balb/cA nude mouse xenografted with human KBv200 cells assessed as mortality at 25 mg/kg, ip qd administered for 13 days in presence of vinorelbine; assay type: organism-based; conditions: in vivo, 312 h, time 13 day
KBv200 [35] = experiment: Antitumor activity against human KBv200 cells xenografted in Balb/cA nude mouse assessed as mean tumor volume at 50 mg/kg, ip administered as single dose and measured on day 0 in presence of vinorelbine; assay type: functional
KBv200 [36] = experiment: Antitumor activity against human KBv200 cells xenografted in Balb/cA nude mouse assessed as mean tumor volume at 50 mg/kg, ip qd administered for 13 days in presence of vinorelbine; assay type: functional; conditions: time 13 day
KBv200 [37] = experiment: Antitumor activity against human KBv200 cells xenografted in Balb/cA nude mouse assessed as T/C ratio at 50 mg/kg, ip qd administered for 13 days in presence of vinorelbine; assay type: functional; conditions: time 13 day
KBv200 [38] = experiment: Antitumor activity against human KBv200 cells xenografted in Balb/cA nude mouse assessed as tumor growth inhibition at 50 mg/kg, ip qd administered for 13 days in presence of vinorelbine; assay type: functional; conditions: KBv200, 312 h, time 13 day
[39] = Toxicity in Balb/cA nude mouse xenografted with human KBv200 cells assessed as changes in body weight at 50 mg/kg, ip qd administered for 13 days in presence of vinorelbine; assay type: organism-based; conditions: in vivo, 312 h, time 13 day
[40] = Toxicity in Balb/cA nude mouse xenografted with human KBv200 cells assessed as mortality at 50 mg/kg, ip qd administered for 13 days in presence of vinorelbine; assay type: organism-based; conditions: in vivo, 312 h, time 13 day
KBv200 [41] = experiment: Downregulation of P-gp mRNA expression level in human KBV200 cells by qRT-PCR analysis; assay type: functional, cell-based
[42] = biological target: ATP-dependent translocase ABCB1 (Homo sapiens, UniProt P08183); experiment: Inhibition of P-gp in human KBv200 cells assessed as induction of conformation change by measuring increase in UIC-2 binding level at 50 uM incubated for 10 mins by UIC-2 reactivity shift assay; assay type: cell-based; conditions: kbv200, 10 min
ATP-dependent translocase ABCB1, sequence (P08183 whole entry): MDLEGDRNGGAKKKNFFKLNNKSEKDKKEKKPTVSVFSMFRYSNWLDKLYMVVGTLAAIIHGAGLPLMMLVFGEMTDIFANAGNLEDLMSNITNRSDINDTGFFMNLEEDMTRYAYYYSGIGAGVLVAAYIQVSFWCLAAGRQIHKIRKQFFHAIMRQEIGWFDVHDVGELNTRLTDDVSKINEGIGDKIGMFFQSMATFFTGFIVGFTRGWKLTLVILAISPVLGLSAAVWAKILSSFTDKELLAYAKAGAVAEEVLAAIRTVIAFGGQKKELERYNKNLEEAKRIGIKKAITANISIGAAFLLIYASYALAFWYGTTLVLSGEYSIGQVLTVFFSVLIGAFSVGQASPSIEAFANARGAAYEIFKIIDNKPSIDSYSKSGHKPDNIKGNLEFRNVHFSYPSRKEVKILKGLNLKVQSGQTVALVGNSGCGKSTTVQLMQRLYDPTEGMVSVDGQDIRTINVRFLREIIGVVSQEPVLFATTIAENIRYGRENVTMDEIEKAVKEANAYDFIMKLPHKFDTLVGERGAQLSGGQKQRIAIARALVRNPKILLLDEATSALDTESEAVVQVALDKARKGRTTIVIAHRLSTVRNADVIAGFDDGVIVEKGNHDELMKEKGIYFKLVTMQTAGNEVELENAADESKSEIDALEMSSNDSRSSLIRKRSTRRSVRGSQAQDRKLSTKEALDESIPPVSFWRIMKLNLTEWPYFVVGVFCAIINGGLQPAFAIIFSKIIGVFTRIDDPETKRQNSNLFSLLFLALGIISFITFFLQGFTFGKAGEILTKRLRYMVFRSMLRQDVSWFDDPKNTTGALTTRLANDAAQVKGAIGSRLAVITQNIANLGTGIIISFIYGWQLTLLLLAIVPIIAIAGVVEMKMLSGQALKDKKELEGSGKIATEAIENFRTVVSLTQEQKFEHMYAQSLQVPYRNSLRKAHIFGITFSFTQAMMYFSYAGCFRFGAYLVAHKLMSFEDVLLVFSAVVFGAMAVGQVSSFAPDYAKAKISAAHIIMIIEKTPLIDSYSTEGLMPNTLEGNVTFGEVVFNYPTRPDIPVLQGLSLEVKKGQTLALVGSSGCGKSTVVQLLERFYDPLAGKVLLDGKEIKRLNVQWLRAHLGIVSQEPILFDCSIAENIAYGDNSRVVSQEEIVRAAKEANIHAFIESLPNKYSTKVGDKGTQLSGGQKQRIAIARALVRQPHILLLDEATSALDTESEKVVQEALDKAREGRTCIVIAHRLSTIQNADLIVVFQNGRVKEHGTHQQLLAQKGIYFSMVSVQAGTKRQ

Compound: O=C1CCCCCCCCCCCNC(=O)[C@@H](Cc2ccccc2)NC(=O)/C(c2cccc3ccccc23)=C\C=C(\c2ccccc2)CN1
- IC50 (KBv200 [1]): 0.02 nM
- Ratio IC50 (KBv200 [2]): 432
- IC50 (KBv200 [3]): 0.9 nM
- IC50 (KBv200 [4]): 37.5 nM
- IC50 (KB): 0.7 nM
- IC50 (K562/Adr): 75.9 nM
- IC50 (K562): 0.8 nM
- IC50 (NCI/ADR-RES): 116 nM
- IC50 (OVCAR-8): 4.6 nM
- IC50 at 48 h [5]: > 100000 nM
- IC50 at 48 h [6]: > 100000 nM
- half-life [7]: 2.56 h
- Tmax [8]: 3 h
- Cmax [9]: 2670 ng/mL
- AUC(0-t) [10]: 9470 ng·h/mL
- AUC(0-inf) [11]: 9490 ng·h/mL
- clearance [12]: 11.9 mL/min/kg
- bioavailability [13]: 21.9%
- half-life [14]: 11.9 h
- half-life [15]: 2.08 h
- Tmax [16]: 2.67 h
- Cmax [17]: 1930 ng/mL
- AUC(0-t) [18]: 17000 ng·h/mL
- AUC(0-t) [19]: 4320 ng·h/mL
- AUC(0-inf) [20]: 20600 ng·h/mL
- AUC(0-inf) [21]: 4350 ng·h/mL
- bioavailability [22]: 47.3%
- Activity (KBv200 [23]): 119.8 mm3
- Activity (KBv200 [24]): 1703.9 mm3
- T/C (KBv200 [25]): 113%
- inhibition in vivo at 50 mg/kg (KBv200 [26]): 19%
- Activity [27]: Non-Toxic
- Activity [28]: Non-Toxic
- Activity (KBv200 [29]): 122 mm3
- Activity (KBv200 [30]): 1384 mm3
- T/C (KBv200 [31]): 65%
- inhibition in vivo at 25 mg/kg (KBv200 [32]): 35%
- Activity [33]: Non-Toxic
- Activity [34]: Non-Toxic
- Activity (KBv200 [35]): 121.6 mm3
- Activity (KBv200 [36]): 1059.5 mm3
- T/C (KBv200 [37]): 48%
- inhibition in vivo at 50 mg/kg (KBv200 [38]): 52%
- Activity [39]: Non-Toxic
- Activity [40]: Non-Toxic
- Activity (KBv200 [41]): inactive
- Activity [42]: Active

Source: ChEMBL document CHEMBL5380791, “Modular Biomimetic Strategy Enabled Discovery of Simplified Pseudo-Natural Macrocyclic P-Glycoprotein Inhibitors Capable of Overcoming Multidrug Resistance” (J Med Chem, 2023)
